System: strain CY7284
Experiment: lacZ assay, Cp5766 in strain CY7284 with integrated LexAop-lacZ
Format: cell-based, yeast
Conditions: after 3 hours of treatment, data not shown
Procedure: In addition to transformation of the chimeric construct, the construct may also be integrated into the yeast strain. […] The lacZ assay was performed as described above.

a-factor
increase of β-galactosidase activities: 63 fold
